Literature values in patent US11446320B1, “Pharmaceutical combination having potent antiviral activity against single-stranded RNA viruses” (priority 2021, dated 2022).

Experiments:
SARS-CoV-2 = details: mammalian cells, in vitro

Compound | effectiveness against bunyaviruses (bunyaviruses) | effectiveness against influenza viruses (influenza viruses) | effectiveness against arenaviruses (arenaviruses) | effectiveness against filoviruses (filoviruses) | inhibition of yellow fever virus (yellow fever virus) | replication of SARS-CoV-2 (SARS-CoV-2) | inhibition of dengue virus (dengue virus)
NC(=O)c1nc(F)c[nH]c1=O [Favipiravir] | effective | effective | effective | effective | – | – | –
NC(=O)c1nc(F)cn([C@@H]2O[C@H](COP(=O)(O)OP(=O)(O)OP(=O)(O)O)[C@@H](O)[C@H]2O)c1=O [favipiravir-RTP] | effective | effective | effective | effective | – | – | –
ivermectin | – | – | – | – | inhibit | slow replication | inhibit
